Results: PubChem BioAssay (NCI)
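1) Cells in 96-well plates. 2) Compound, 48 h, 5 concentrations. 3) Linear interpolation between surrounding doses. 4) Unreached endpoint = highest concentration. Abbreviation: GI50, concentration required for 50% inhibition of growth. The concentration for full growth arrest is given as TGI.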

Columns and labels:
Experiment in all cases: NCI anticancer screen, dose series, 48 h
SR leukemia = test system: SR leukemia
786-0 renal = test system: 786-0 renal
OVCAR-5 ovarian = test system: OVCAR-5 ovarian
SNB-19 CNS = test system: SNB-19 CNS
NCI/ADR-RES ovarian = test system: NCI/ADR-RES ovarian
T-47D breast = test system: T-47D breast
EKVX NSCLC = test system: EKVX NSCLC
HT29 colon = test system: HT29 colon
KM12 colon = test system: KM12 colon
NCI-H522 lung = test system: NCI-H522 lung
SK-MEL-5 melanoma = test system: SK-MEL-5 melanoma
ACHN renal = test system: ACHN renal
SK-MEL-2 melanoma = test system: SK-MEL-2 melanoma
HOP-62 NSCLC = test system: HOP-62 NSCLC
OVCAR-8 ovarian = test system: OVCAR-8 ovarian
MALME-3M melanoma = test system: MALME-3M melanoma
HCC-2998 colon = test system: HCC-2998 colon
CCRF-CEM leukemia = test system: CCRF-CEM leukemia
CAKI-1 renal = test system: CAKI-1 renal
UO-31 renal = test system: UO-31 renal
LOX IMVI melanoma = test system: LOX IMVI melanoma
MDA-MB-231 breast = test system: MDA-MB-231 breast
OVCAR-3 ovarian = test system: OVCAR-3 ovarian
MDA-MB-435 = test system: MDA-MB-435
MCF7 breast = test system: MCF7 breast
RPMI-8226 leukemia = test system: RPMI-8226 leukemia
RXF 393 renal = test system: RXF 393 renal
HS 578T breast = test system: HS 578T breast
SK-MEL-28 melanoma = test system: SK-MEL-28 melanoma
SK-OV-3 ovarian = test system: SK-OV-3 ovarian
OVCAR-4 ovarian = test system: OVCAR-4 ovarian
SNB-75 CNS = test system: SNB-75 CNS
SF-295 CNS = test system: SF-295 CNS
UACC-257 melanoma = test system: UACC-257 melanoma
TK-10 renal = test system: TK-10 renal
SF-539 CNS = test system: SF-539 CNS
M14 melanoma = test system: M14 melanoma
SW-620 colon = test system: SW-620 colon
COLO 205 colon = test system: COLO 205 colon
SN12C renal = test system: SN12C renal
U251 CNS = test system: U251 CNS
A498 renal = test system: A498 renal
PC-3 prostate = test system: PC-3 prostate
DU-145 prostate = test system: DU-145 prostate
A549 NSCLC = test system: A549 NSCLC
HOP-92 NSCLC = test system: HOP-92 NSCLC
NCI-H226 lung = test system: NCI-H226 lung
MOLT-4 leukemia = test system: MOLT-4 leukemia
NCI-H460 lung = test system: NCI-H460 lung
NCI-H23 lung = test system: NCI-H23 lung
BT-549 breast = test system: BT-549 breast
HCT-15 colon = test system: HCT-15 colon
SF-268 CNS = test system: SF-268 CNS
HCT-116 colon = test system: HCT-116 colon
UACC-62 melanoma = test system: UACC-62 melanoma
HL-60(TB) leukemia = test system: HL-60(TB) leukemia
IGROV1 ovarian = test system: IGROV1 ovarian

[N-]=[N+]=NCCCn1c2c(c3ccccc3c1=O)C(=O)c1cc(Br)ccc1-2
GI50 (SR leukemia): 9.82 µM
TGI (SR leukemia): 51.7 µM
GI50 (786-0 renal): > 100 µM
TGI (786-0 renal): > 100 µM
GI50 (OVCAR-5 ovarian): > 100 µM
TGI (OVCAR-5 ovarian): > 100 µM
GI50 (SNB-19 CNS): > 100 µM
TGI (SNB-19 CNS): > 100 µM
GI50 (NCI/ADR-RES ovarian): > 100 µM
TGI (NCI/ADR-RES ovarian): > 100 µM
GI50 (T-47D breast): > 100 µM
TGI (T-47D breast): > 100 µM
GI50 (EKVX NSCLC): > 100 µM
TGI (EKVX NSCLC): > 100 µM
GI50 (HT29 colon): > 100 µM
TGI (HT29 colon): > 100 µM
GI50 (KM12 colon): > 100 µM
TGI (KM12 colon): > 100 µM
GI50 (NCI-H522 lung): > 100 µM
TGI (NCI-H522 lung): > 100 µM
GI50 (SK-MEL-5 melanoma): > 100 µM
TGI (SK-MEL-5 melanoma): > 100 µM
GI50 (ACHN renal): > 100 µM
TGI (ACHN renal): > 100 µM
GI50 (SK-MEL-2 melanoma): > 100 µM
TGI (SK-MEL-2 melanoma): > 100 µM
GI50 (HOP-62 NSCLC): > 100 µM
TGI (HOP-62 NSCLC): > 100 µM
GI50 (OVCAR-8 ovarian): > 100 µM
TGI (OVCAR-8 ovarian): > 100 µM
GI50 (MALME-3M melanoma): > 100 µM
TGI (MALME-3M melanoma): > 100 µM
GI50 (HCC-2998 colon): > 100 µM
TGI (HCC-2998 colon): > 100 µM
GI50 (CCRF-CEM leukemia): 50.8 µM
TGI (CCRF-CEM leukemia): > 100 µM
GI50 (CAKI-1 renal): > 100 µM
TGI (CAKI-1 renal): > 100 µM
GI50 (UO-31 renal): > 100 µM
TGI (UO-31 renal): > 100 µM
GI50 (LOX IMVI melanoma): > 100 µM
TGI (LOX IMVI melanoma): > 100 µM
GI50 (MDA-MB-231 breast): > 100 µM
TGI (MDA-MB-231 breast): > 100 µM
GI50 (OVCAR-3 ovarian): > 100 µM
TGI (OVCAR-3 ovarian): > 100 µM
GI50 (MDA-MB-435): > 100 µM
TGI (MDA-MB-435): > 100 µM
GI50 (MCF7 breast): 39.8 µM
TGI (MCF7 breast): > 100 µM
GI50 (RPMI-8226 leukemia): > 100 µM
TGI (RPMI-8226 leukemia): > 100 µM
GI50 (RXF 393 renal): > 100 µM
TGI (RXF 393 renal): > 100 µM
GI50 (HS 578T breast): > 100 µM
TGI (HS 578T breast): > 100 µM
GI50 (SK-MEL-28 melanoma): > 100 µM
TGI (SK-MEL-28 melanoma): > 100 µM
GI50 (SK-OV-3 ovarian): > 100 µM
TGI (SK-OV-3 ovarian): > 100 µM
GI50 (OVCAR-4 ovarian): > 100 µM
TGI (OVCAR-4 ovarian): > 100 µM
GI50 (SNB-75 CNS): 45.1 µM
TGI (SNB-75 CNS): > 100 µM
GI50 (SF-295 CNS): > 100 µM
TGI (SF-295 CNS): > 100 µM
GI50 (UACC-257 melanoma): > 100 µM
TGI (UACC-257 melanoma): > 100 µM
GI50 (TK-10 renal): > 100 µM
TGI (TK-10 renal): > 100 µM
GI50 (SF-539 CNS): > 100 µM
TGI (SF-539 CNS): > 100 µM
GI50 (M14 melanoma): > 100 µM
TGI (M14 melanoma): > 100 µM
GI50 (SW-620 colon): > 100 µM
TGI (SW-620 colon): > 100 µM
GI50 (COLO 205 colon): > 100 µM
TGI (COLO 205 colon): > 100 µM
GI50 (SN12C renal): > 100 µM
TGI (SN12C renal): > 100 µM
GI50 (U251 CNS): > 100 µM
TGI (U251 CNS): > 100 µM
GI50 (A498 renal): > 100 µM
TGI (A498 renal): > 100 µM
GI50 (PC-3 prostate): > 100 µM
TGI (PC-3 prostate): > 100 µM
GI50 (DU-145 prostate): > 100 µM
TGI (DU-145 prostate): > 100 µM
GI50 (A549 NSCLC): > 100 µM
TGI (A549 NSCLC): > 100 µM
GI50 (HOP-92 NSCLC): 9.42 µM
TGI (HOP-92 NSCLC): 92.4 µM
GI50 (NCI-H226 lung): > 100 µM
TGI (NCI-H226 lung): > 100 µM
GI50 (MOLT-4 leukemia): 28.9 µM
TGI (MOLT-4 leukemia): > 100 µM
GI50 (NCI-H460 lung): 46.8 µM
TGI (NCI-H460 lung): > 100 µM
GI50 (NCI-H23 lung): > 100 µM
TGI (NCI-H23 lung): > 100 µM
GI50 (BT-549 breast): > 100 µM
TGI (BT-549 breast): > 100 µM
GI50 (HCT-15 colon): > 100 µM
TGI (HCT-15 colon): > 100 µM
GI50 (SF-268 CNS): > 100 µM
TGI (SF-268 CNS): > 100 µM
GI50 (HCT-116 colon): > 100 µM
TGI (HCT-116 colon): > 100 µM
GI50 (UACC-62 melanoma): > 100 µM
TGI (UACC-62 melanoma): > 100 µM
GI50 (HL-60(TB) leukemia): > 100 µM
TGI (HL-60(TB) leukemia): > 100 µM
GI50 (IGROV1 ovarian): > 100 µM
TGI (IGROV1 ovarian): > 100 µM
